Assay results: patent US20200383969A1, “RIMEGEPANT FOR CGRP RELATED DISORDERS” (Biohaven Pharmaceutical Holding Company Ltd., priority 2018, published 2020)

Assay: Study 301 (BHV3000-301), Phase 3, rimegepant 75 mg tablet vs placebo, acute treatment of migraine
Assay type: in vivo, human
From the text: Clinical Trial—BHV3000-301: Phase 3: Double-Blind, Randomized, Placebo-Controlled, Safety and Efficacy Trial of BHV-3000 (Rimegepant) for the Acute Treatment of Migraine (ClinicalTrials.gov Identifier: NCT03235479). • Study Type: Interventional (Clinical Trial) • Actual Enrollment: 1490 participants • Allocation: Randomized • Intervention Model: Parallel Assignment • Intervention Model Description: Double-blind to Sponsor, Investigator and Subject Randomized Controlled Trial • Masking: Triple (Participant, Care Provider, Investigator) • Masking Description: Double-blind to Sponsor, Investigator and Subject • Primary Purpose: Treatment • Official Title: BHV3000-301: Phase 3: Double-Blind, Randomized, Placebo-Controlled, Safety and Efficacy Trial of BHV-3000 (Rimegepant) for the Acute Treatment of Migraine • 1. Pain freedom of rimegepant (75 mg tablet) compared with placebo in the acute treatment of migraine will be measured using the number of evaluable subjects that report no pain at 2 hours post-dose. [Time Frame: Two hours post dose] • Pain will be measured on a 4 point Likert scale (0=none, 1=mild, 2=moderate, 3=severe) • 2. Freedom from the most bothersome symptom (MBS) of rimegepant (75 mg tablet) compared with placebo will be measured using the number of evaluable subjects that report the absence of their MBS at 2 hours post-dose. [Time Frame: Two hours post dose] • The MBS (nausea, phonophobia or photophobia) will measured using a binary scale (0=absent, 1=present). • 1. […] [Time Frame: 2 hours-24 hours post-dose] • Sustained Pain Freedom as measured by a 4 point numeric rating scale (None, Mild, Moderate, Severe) • 2. The difference between rimegepant (75 mg tablet) compared to placebo by tabulating the absence of photophobia at 2 hours post-dose in the subset of subjects that reported the presence of photophobia at headache baseline. [Time Frame: 2 hours post-dose] • Photophobia • 3. To evaluate rimegepant (75 mg tablet) compared to placebo by tabulating the number of subjects that report the absence of phonophobia at 2 hours post-dose in the subset of subjects that reported the presence of phonophobia at headache baseline. [Time Frame: 2 hours post-dose] • Phonophobia • 4. To measure the difference between rimegepant (75 mg tablet) compared to placebo on Pain Relief, at 2 hours post-dose, for those that report a pain level of moderate or severe at baseline and then report a pain level of none or mild. [Time Frame: 2 hours post-dose] • Pain Relief as measured by a 4 point numeric rating scale (None, Mild, Moderate, Severe) • 5. Freedom from Nausea by tabulating the number of subjects that report the absence of nausea at 2 hours post-dose in the subset of subjects that reported the presence of nausea at headache baseline. [Time Frame: 2 hours post-dose] • Freedom from Nausea • 6. The difference between rimegepant (75 mg tablet) compared to placebo on the probability of requiring rescue medication using the number of subjects that take rescue medication within […] administration of study medication (BHV3000 or placebo). [Time Frame: up to 24 hours post-dose] • Requiring Rescue Medication • 7. […] [Time Frame: 2 hours-24 hours post-dose] • Sustained Pain Freedom • 8. […] [Time Frame: 2 hours-24 hours post-dose] • Sustained Pain Relief as measured by a 4 point numeric rating scale (None, Mild, Moderate, Severe) • 9. […] [Time Frame: 2 hours-48 hours post-dose] • Sustained Pain Relief as measured by a 4 point numeric rating scale (None, Mild, Moderate, Severe) • 10. To measure the difference between rimegepant (75 mg tablet) relative to placebo on the proportion of subjects able to function normally, at 2 hours, using the number of subjects that self-report as “normal” on the functional disability scale. [Time Frame: 2 hours post-dose] • Functional Disability Score • 11. […]

[1] = both subjects not dosed before onset

For `N[C@@H]1c2cccnc2[C@H](OC(=O)N2CCC(n3c(=O)[nH]c4ncccc43)CC2)CC[C@H]1c1cccc(F)c1F` [Rimegepant, [(5S,6S,9R)-5-amino-6-(2,3-difluorophenyl)-6,7,8,9-tetrahydro-5H-cyclohepta[b]pyridin-9-yl] 4-(2-oxo-3H-imidazo[4,5-b]pyridin-1-yl)piperidine-1-carboxylate], the “SAEs related to the study drug” value was “No SAE”, the “AE dizziness, incidence” value (75 mg tablet) was 0.7% and the “AE dizziness, n/N” value (75 mg tablet) was 4/546. For the same compound, the “AE nausea, incidence” value (75 mg tablet) was 0.9%, the “AE nausea, n/N” value (75 mg tablet) was 5/546 and the “Bilirubin elevations >2 times ULN” value (75 mg tablet) was “No bilirubin elevations”. The “Serum ALT or AST > ULN, n/N” value (75 mg tablet) was 11/546, the “Serum ALT or AST > ULN, subjects” value (75 mg tablet) was 2.0% and the “Transaminase level >3 times ULN, number of subjects” value (75 mg tablet) was “One”. The “Transaminase level >3 times ULN, subjects” value (75 mg tablet) was 0.2%, the “Transaminase level >5 times ULN” value (75 mg tablet) was “no subject” and the “Normal function at 2 hours (functional disability) vs placebo” value (P<0.0001) was “greater proportion”. The “Serious AEs, number of subjects” value [1] was 2, the “Serious AEs, subjects” value [1] was 0.4% and the “Sustained pain relief from 2 through 48 hours postdose vs placebo” value (single dose, no rescue medication, P=0.0003) was “superiority versus placebo”. The “Sustained pain freedom from 2 through 48 hours postdose vs placebo” value (single dose, no rescue medication, P=0.013) was “superiority versus placebo”.
